From US10195220B2, “Hydrogen sulphide compounds” (Aston University, priority 2013, dated 2019)
One block for each molecule: values may come before it.

Experiments:
HTR-8/SVneo cells = assay: Trophoblast cell invasion assay (Matrigel-coated transwell); type: cell-based, human; conditions: PAG 50 μM, 24 h, p<0.01, n=3
Procedure: The human extravillus trophoblast (EVT) cell line HTR-8/SVneo was a kind gift from Professor Charles H. Graham, Queen's University, Kingston, Ontario, Canada. The invasion assay was performed as described previously, with modification.30 Briefly, HTR-8/SVneo (50,000) cells treated with or without PAG were placed in the upper chamber of Matrigel-coated (1 mg/ml) transwell inserts (8 μm pore, Falcon, BD, UK) and housed in a 24-well plate. The cells were allowed to invade through the reconstituted extracellular matrix for 24 h in the presence or absence of 50 µM PAG (n=3). Trophoblast cells located on the under-surface of the transwell membrane were fixed with ice-cold methanol and stained with hematoxylin, and brightfield images were obtained with Nikon inverted microscope and Image Pro Plus image analysis software (Media Cybernetics). Transwell migration assays of HTR-8/SVneo cells in the presence of 50 µM of PAG were performed as described in Methods. (A) Migrated HTR-8/SVneo were stained with hematoxylin, and brightfield images were captured. (B) Cell numbers were counted, and results are expressed as a percentage of the control (n=3).

rat = conditions: chronic administration; cited from earlier work
pregnant C57Bl6/J mice = assay: CSE inhibition in pregnant mice (PAG, with or without GYY4137); type: in vivo
Procedure: Eight to ten week old C57/black6 mice were mated. The first day of pregnancy (E0.5) was defined by the presence of a vaginal plug the following morning. Pregnant mice were randomly assigned into four groups: (i) saline (vehicle control), (ii) 25 mg/kg DL-propargylglycine (PAG; Sigma, Poole, U.K.), (iii) 50 mg/kg group PAG and (iv) 50 mg/kg
PAG with 0.25 mg/kg of slow-releasing H2S donor, GYY4137(Sigma). Mice were injected intraperitoneally (i.p.) with saline or PAG from E8.5. Blood pressure was measured by tail cuff-plethysmography. Mice were trained for measurement on alternate days from E4.5. Alternatively, mice were anesthetized by Ketamine/Xylazine cocktail. The carotid artery was isolated and cannulated with a 3-Fr high-fidelity microtip catheter connected to a pressure transducer (Millar Instruments, Houston, Tex., USA). Blood pressure was recorded and averaged over a 10-minute period. On E17.5, after blood pressure measurement and blood sample collection the animals were sacrificed and kidney, liver, and placenta were collected. The un-absorbed fetuses and placentas were counted and weighed.
Kidney, liver, and placenta were immersion fixed in 4% paraformaldehyde for 24 hours and processed to paraffin. A series of 5-μm sections were cut and processed for hematoxylin & eosin (H&E) staining.
(§1) Enzyme-linked immunosorbent assay (ELISA) kits for human and murine soluble Flt-1, soluble endoglin and PlGF were obtained from R&D Systems and performed according to the manufacturer's specifications.
Serial 3-5-μm sections of formalin-fixed, paraffin-embedded human and murine placental tissue were prepared for immunohistochemistry as previously described.^29 Biotin-labelled isolectin B4, anti-CSE (5 mg/ml) and isotype control were used. The staining was analyzed using a Nikon inverted microscope and an Image Pro Plus image analysis software (Media Cybernetics).
Citrated blood was obtained from women with uncomplicated pregnancies (n=14) and preeclampsia (n=14) and also from pregnant mice before termination of pregnancy. H2S levels were measured as described previously with modification.^32 Briefly, 75 μl plasma was mixed with 250 μl of 1% (w/v) zinc acetate and 425 μl water, followed by […] 50% trichloroacetic acid to remove protein. Then 133 μl 20 mM N-dimethyl-p-phenylenediamine sulphate in 7.2 mM HCl and 133 μl 30 μM FeCl3 in 1.2 mM HCl were added to the mixture. After 10 min incubation at room temperature, reaction mixtures were pelleted by centrifugation at 10,000 g (2 minutes). The absorbance of the resulting solution was measured at 670 nm with a spectrophotometer in a 96-well plate. The concentration of H2S in the solution was calculated against a calibration curve of sodium hydrogen sulfide.
Three groups (5-8/group) of pregnant C57Bl6/J mice were treated daily with vehicle or 25 mg/kg PAG or 50 mg/kg PAG from E8.5 to E16.5. After 8 days of treatment, plasma was pooled from all animals in each treatment group, and pooled H2S levels were measured. […] The labyrinth zone consists of cells of trophoblast and mesodermal origin that together undergo branching morphogenesis, resulting in a large surface area for nutrient and gas exchange between the mother and fetus. The maternal blood space is lined by trophoblast. During placental development, this space becomes progressively more finely divided.^37, 38 Using isolectin B4 to highlight the fetal endothelial cell,^39 we compared the anatomical features of the labyrinth zone in vehicle and 50 mg/kg PAG-treated mice.

[1] = test system: first trimester human placental explants; assay: Angiogenic factor release from first trimester placental villus explants (ELISA of conditioned medium); type: cell-based; conditions: increasing concentration of PAG over 24 hours
Source text: Institutional Ethics Committee approved the blood and tissue collection and written informed consent was obtained. We analysed blood samples from women with singleton pregnancies recruited in the Low- and High-Risk Clinics and Labour and Delivery Unit. All women were followed prospectively from enrolment until delivery. Human placental tissues were collected from pregnancies complicated by preeclampsia and uncomplicated pregnancies delivered by elective Caesarean. Samples of placental tissue were processed for RNA extraction and maternal plasma from the same patients (n=14 PE and n=14 control) were used for analysis. From another set of patients placenta (n=5 PE and n=5 control) was collected for the immunohistochemical study. Preeclampsia was defined as blood pressure >140/90 mm Hg on at least 2 consecutive measurements and maternal proteinuria of at least 300 mg/24 h. First trimester placental tissues (6-9 weeks gestational age) were retrieved from normal pregnancies that had undergone elective termination. Villus explants were prepared as described previously.^29 Briefly, human placental villus explants were incubated with or without PAG for 24 hours, and conditioned media collected and assayed for sFlt-1 or sEng and PlGF.
as §1
Angiogenic factors produced by placenta are important in regulating placental vascular development.^33 Imbalance of pro- and anti-angiogenic factors generated by the placenta^29 may account for the widespread maternal endothelial dysfunction in preeclampsia.^34 To investigate whether reduced levels of CSE has any effect on the production of placental angiogenic factor production, sFlt-1, sEng, and PlGF levels were measured in conditioned medium from first trimester human placental explants in the presence of increasing concentration of CSE inhibitor PAG over 24 hours.

HUVEC = conditions: preeclamptic plasma, 100 mM NaHS
Procedure: The spontaneous formation of capillary-like structures by HUVECs on growth factor-reduced Matrigel (Becton Dickinson, Bedford, Mass.), was used to assess angiogenic potential. HUVECs were treated with plasma samples collected from pregnancies complicated by preeclampsia and uncomplicated pregnancies with or without H2S donor (NaHS) and incubated at 37° C. for 24 hours. Ninety-six well plates were coated with Matrigel (10 mg/ml) according to the manufacturer's instructions. HUVECs (1×10^4 cells/well) were then seeded on Matrigel-coated plates.

[2] = GYY4137 0.25 mg/kg with 50 mg/kg PAG
[3] = GYY4137 in mice treated with 50 mg/kg PAG

- proteinuria (renal pathological changes) (pregnant C57Bl6/J mice; PAG treated animals): not noted
Structure (SMILES): C#CCC(N)C(=O)O (racemic) [PAG, DL-propargylglycine]
- cell invasion compared with vehicle control (HTR-8/SVneo cells): significant reduction
- blood pressure (rat): elevated
- fetal vasculature of the placenta (isolectin B4) (pregnant C57Bl6/J mice; 50 mg/kg PAG): irregular branching
- plasma levels of sEng (pregnant C57Bl6/J mice; 50 mg/kg PAG alone): induced
- plasma levels of sFlt-1 (pregnant C57Bl6/J mice; 50 mg/kg PAG alone): induced
- maternal blood space in the labyrinth zone, versus vehicle controls (pregnant C57Bl6/J mice; 50 mg/kg PAG, blinded histology of placental sections): appeared larger
- circulating H2S levels (pregnant C57Bl6/J mice; 25 or 50 mg/kg PAG i.p. daily E8.5 to E16.5, pooled plasma): dose-dependent decrease
- circulating liver enzyme aspartate transaminase (AST), liver damage (pregnant C57Bl6/J mice; PAG-treated animals): increased level
- mean blood pressure (pregnant C57Bl6/J mice; high dose PAG (50 mg/kg), vehicle control 64.74±2.04): 74.40±4.61
- reduction of plasma H2S levels (pregnant C57Bl6/J mice; higher dose PAG (50 mg/kg), after 8 days of treatment, pooled plasma): approximately 50%
- fetal weight (pregnant C57Bl6/J mice; higher dose of PAG): significantly decreased
- PlGF production [1]: significantly reduced
- sEng levels in conditioned medium [1]: remained unchanged
- sFlt-1 levels in conditioned medium [1]: remained unchanged

Structure (SMILES): C1COCCN1.COc1ccc(P(=S)(S)N2CCOCC2)cc1 (centres unmarked) [GYY4137, morpholin-4-ium 4 methoxy phenyl(morpholino)phosphinodithiolate]
- all the changes of PAG-treated pregnant mice (blood pressure, AST) (pregnant C57Bl6/J mice; [2]): abrogated
- fetal growth compromised by the CSE inhibitor (pregnant C57Bl6/J mice; [2]): restored
- plasma levels of sEng induced by CSE inhibition (pregnant C57Bl6/J mice; [3]): inhibited
- plasma levels of sFlt-1 induced by CSE inhibition (pregnant C57Bl6/J mice; [3]): inhibited
- blood pressure compromised by PAG-treatment (pregnant C57Bl6/J mice; GYY4137 with PAG): rescued
- liver function compromised by PAG-treatment (pregnant C57Bl6/J mice; GYY4137 with PAG): rescued
- placental vascular defect due to inhibition of CSE activity (pregnant C57Bl6/J mice; GYY4137 with PAG 50 mg/kg): restored

Structure (SMILES): [Na+].[SH-] [NaHS, sodium hydrogen sulfide]
- ability of HUVECs to form tube-like structure (HUVEC): partially restored
